Assay results reported in US20150328320A1, “Novel Pharmaceutical Composition” (GLAXOSMITHKLINE LLC, priority 2012, published 2015).
Entries after “also recorded” stand apart in the source; their conditions may differ.

Assays:
[1] = tested on: BRAF V600-mutation positive metastatic melanoma; settings: subjects with BRAF V600-mutation positive metastatic melanoma, Phase III study; cited from earlier work
[2] = Trametinib concentration profile as a function of time and Cavitron concentration (FIG. 2)
[3] = Exposure and absorption upon in vivo administration
Description: Suitably the powder for oral solution (POS) of the current invention contain micronized Compound A where at least 90% of the particles of Compound A are from 1 to 20 microns, suitably from 2.2 to 10.5 microns, such formulations provide an acceptable exposure/absorption profile. Suitably the powder for oral solution (POS) of the current invention contains micronized Compound A where at least 50% of the particles of Compound A are from 1 to 6 microns, suitably from 1.5 to 4.3 microns, such formulations provide an acceptable exposure/absorption profile. Suitably the powder for oral solution (POS) of the current invention contains micronized Compound A where at least 10% of the particles of Compound A are from 0.01 to 3.0 microns, suitably from 0.77 to 1.3 microns, such formulations provide an acceptable exposure/absorption profile. Such formulations help provide safe and effective treatment.

[4] = Solubility profile at 0.05 mg/mL using solubilizers as a function of time (FIG. 4); type: physicochemical; settings: 30 days, 25° C. and 60% relative humidity
[5] = Effect of HPMC and solubilizers on aqueous solubility of trametinib (FIG. 3); type: physicochemical; settings: HPMC present in a cavitron solution, initial 1 mg/mL
[6] = Physical stability, photo-stability and relative solubility of the drug substance; type: physicochemical
Description: Several additional challenges exist concerning the use of Compound A in a pediatric formulation.
The potential for unacceptable levels of photo-degradation is of particular importance since photo-catalyzed degradation products may be potentially toxic.

[7] = Aqueous solubility of trametinib in the presence of various solubilizers (FIG. 1); type: physicochemical
Description: FIG. 1 depicts the aqueous solubility of trametinib in the presence of various solubilizers.
As used herein, “solubilizer” is a substance (liquid or solid) that helps to keep the drug uniformly dispersed and dissolved in solution. A solubilizer prevents recrystallization and precipitation of the dissolved drug out of solution. For use in the present invention, suitable solubilizers include, but are not limited to, hypromellose, polyvinylpyrrolidone, sulfobutylether B-cyclodextrin (Captisol) and hydroxypropyl B-cyclodextrin (Cavitron). A combination of solubilizers can also be used. […] Suitably, the amount of solubilizer in a formulation according to the invention will be selected from: about 30 to 95%; suitably about 50 to 80%; suitably about 65 to 75%; by weight of the final product. Suitably, the amount of solubilizer in a formulation according to the invention will be selected from: about 30%; suitably about 35%, suitably about 40%, suitably about 45%, suitably about 50%, suitably about 55%, suitably about 60%, suitably about 65%, suitably about 70%, suitably about 75%, suitably about 80%, suitably about 85%, suitably about 90%, and suitably about 95%, by weight of the final product.

trametinib concentration remaining in solution ([2]; Cavitron solutions, initial concentration 1 mg/mL, after five days)	exposure and absorption [3]	aqueous solubility ([7]; hypromellose and hydroxypropyl B-cyclodextrin combined)	aqueous solubility ([7]; in hydroxypropyl B-cyclodextrin (Cavitron) formulation)	aqueous solubility ([7]; in polyethylene glycol (PEG) solution)	aqueous solubility ([7]; in polyethylene glycol (PEG) solution, listed as Trametinib)	aqueous solubility ([7]; in propylene glycol solution)	aqueous solubility ([7]; in propylene glycol solution, listed as Trametinib)	solubility relative to Compound A [6]	Compound	anti-tumor activity [1]	solubility and solution stability over time ([4]; captisol solution)	solubility and solution stability over time ([4]; cavitron solution)	stability of solution (precipitation) [5]	physical stability of the solvate (desolvation) ([6]; high humidity or aqueous environment, handling and formulation)	photo-stability ([6]; light)	precipitation out of solution ([2]; starting concentration ~0.05 mg/mL, conditions of FIG. 2)
7-10 % of the initial concentration	poor exposure and absorption	good aqueous solubility	greatest solubility	very low aqueous solubility	generally not soluble	very low aqueous solubility	generally not soluble		CC(=O)Nc1cccc(-n2c(=O)n(C3CC3)c(=O)c3c(Nc4ccc(I)cc4F)n(C)c(=O)c(C)c32)c1 [Compound A, N-{3-[3-cyclopropyl-5-(2-fluoro-4-iodo-phenylamino)-6,8-dimethyl-2,4,7-trioxo-3,4,6,7-tetrahydro-2H-pyrido[4,3-d]pyrimidin-1-yl]phenyl}acetamide dimethyl sulfoxide solvate]	has shown anti-tumor activity	able to maintain the solubility and stabilize the solution for 30 days	able to maintain the solubility and stabilize the solution for 30 days	increases the stability of trametinib solution	favors conversion from the dimethyl sulfoxide solvate to the de-solvated form; also recorded: can undergo desolvation	very sensitive to light; also recorded: can suffer from photo-instability	
								much less soluble than Compound A	CC(=O)Nc1cccc(-n2c(=O)n(C3CC3)c(=O)c3c(Nc4ccc(I)cc4F)n(C)c(=O)c(C)c32)c1 [Compound B, N-{3-[3-cyclopropyl-5-(2-fluoro-4-iodo-phenylamino)-6,8-dimethyl-2,4,7-trioxo-3,4,6,7-tetrahydro-2H-pyrido[4,3-d]pyrimidin-1-yl]phenyl}acetamide]							no significant amount of the drug will precipitate out of solution
